A short description of data set [1]: in vitro drug release study (Franz diffusion cell, pH 7.4). The format is physicochemical. Conditions: pH 7.4, 37 °C. On the procedure:
• Equipment: Franz diffusion cell shown in FIG. 38. • Dissolution medium: Physiological buffer solution pH (7.4) • Temperature: 37±0.2 °C. • Rotational speed: 100 rpm • Mode of sample analysis for Salbutamol sulphate—HPLC-UV analysis using RP C18 250X 4.6 mm; 5-micron, 100 A column and 87 parts of ammonium acetate buffer (pH 3.0, 20 mM) with sodium hexane sulfonate in combination with 13 parts of acetonitrile as a mobile phase. • Mode of sample analysis for Lorazepam—UV analysis, absorbance 280 nm • Mode of sample analysis for Cetirizine dihydrochloride—UV analysis, absorbance 276 nm • Mode of sample analysis for Ondansetran—UV analysis, absorbance 249 nm
Drug release at early time points was used to check the quick release characteristics. Salbutamol sulphate, Lorazepam and Cetirizine dihydrochloride which are soluble drugs released more than 80% achieving the quick release characteristics. Ondansetran which is a poorly soluble drug released about 30% in 20 minutes. Probably owing to its slow rate of dissolution. All drugs were analysed using appropriate UV/HPLC method as described in EXAMPLE 3. (FIGS. 39, 40, 41, 42, 43, 44)

Data set [2] is described as follows: drug classification and dissolution in the fabrication solvent. The format is physicochemical. Conditions: fabrication stage. Here is the method: Salbutamol sulphate (Dose per patch 2.5 mg) and Lorazepam (Dose per patch 4 mg) are BCS Class I drugs, Cetirizine dihydrochloride (Dose per patch 5 mg) is BCS class III and Ondansetron Hydrochloride (Dose per patch 16 mg) is BCS Class II. The various drugs were studied for suitability of incorporation into the Dissolving microneedle formulation.

Counter-ions that a name gives are not always drawn.

On to `O=C(O)COCCN1CCN(C(c2ccccc2)c2ccc(Cl)cc2)CC1` (centres unmarked) [Cetirizine dihydrochloride], for which the Cetirizine dihydrochloride released entry in data set [1] (batch MN01/02/83A, early time points, UV 276 nm) is recorded as “more than 80%”. For `O=C1Nc2ccc(Cl)cc2C(c2ccccc2Cl)=NC1O` (centres unmarked) [Lorazepam], the Lorazepam released result in data set [1] (batch MN01/02/82, early time points, UV 280 nm) is on record as “more than 80%”. For the molecule `CC(C)(C)NCC(O)c1ccc(O)c(CO)c1` (centres unmarked) [Salbutamol sulphate], the Salbutamol sulphate released result in data set [1] (batches MN01/02/64, MN01/02/77/A, MN01/02/77/B, early time points, HPLC-UV) is on record as “more than 80%”. As for `Cc1nccn1CC1CCc2c(c3ccccc3n2C)C1=O` (centres unmarked) [Ondansetron Hydrochloride], the Ondansetran released entry in data set [1] (batch MN01/02/84, in 20 minutes, UV 249 nm) was “about 30%”. Moreover, the “dissolution of drug in the aqueous solvent during fabrication” value in data set [2] is “remained dispersed”.

(Values after US20260373434A1, “QUICK DISSOLVABLE MICRONEEDLE WITH ENHANCED MECHANICAL STRENGTH, ITS COMPOSITIONS AND METHOD FOR FABRICATION THEREOF” (TRANSFORM SCITECH PRIVATE LIMITED, priority 2023, published 2026).)
